Reference: article PMC6592262, “Isolation and functional characterization of two dioxygenases putatively involved in bixin biosynthesis in annatto (Bixa orellana L.)” (PeerJ, 2019)

Biological target: T1, BoCCD4-3 (Bixa orellana, UniProt A0A140CWS5)
T1 construct: gene CCD4-3; complete ORF (1,785 bp amplicon, predicted 30-residue transit peptide kept) in pDEST17, arabinose-induced in lycopene-accumulating E. coli BL21 (pACCRTEIB); cells or crude cell-free extract, not purified
Experiment: cleavage in lycopene-accumulating E. coli and in cell-free extract; HPLC, UHPLC-ESI-QTOF-MS/MS, FTIR
Assay type: biochemical
Conditions: 1 mM lycopene added 1:1 to extract, 22 °C, up to 5 min; product bixin aldehyde (m/z 349.2), 5,6/5',6' cleavage; crude extract

T1 sequence (A0A140CWS5 entry or part of it): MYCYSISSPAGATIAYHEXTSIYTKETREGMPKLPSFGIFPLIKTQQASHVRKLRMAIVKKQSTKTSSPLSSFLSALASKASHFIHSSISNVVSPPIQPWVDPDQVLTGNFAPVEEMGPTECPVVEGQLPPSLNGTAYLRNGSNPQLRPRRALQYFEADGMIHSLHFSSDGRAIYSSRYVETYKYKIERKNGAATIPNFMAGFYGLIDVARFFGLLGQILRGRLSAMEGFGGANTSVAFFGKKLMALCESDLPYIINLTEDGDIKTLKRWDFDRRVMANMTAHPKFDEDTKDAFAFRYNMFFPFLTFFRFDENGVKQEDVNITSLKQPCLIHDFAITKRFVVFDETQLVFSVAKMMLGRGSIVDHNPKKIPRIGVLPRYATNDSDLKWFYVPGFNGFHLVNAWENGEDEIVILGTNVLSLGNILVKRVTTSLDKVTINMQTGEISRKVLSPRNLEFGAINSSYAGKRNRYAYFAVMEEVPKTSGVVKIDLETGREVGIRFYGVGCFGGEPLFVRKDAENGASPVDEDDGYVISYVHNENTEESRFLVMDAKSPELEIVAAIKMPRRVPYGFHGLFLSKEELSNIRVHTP

SMILES: CC(C)=CCC/C(C)=C/C=C/C(C)=C/C=C/C(C)=C/C=C/C=C(C)/C=C/C=C(C)/C=C/C=C(\C)CCC=C(C)C [lycopene]
- cleavage in lycopene-accumulating E. coli and in cell-free extract; HPLC, UHPLC-: BoCCD4-3 is also able to cleave lycopene into bixin aldehyde, but at lower efficiency
